Assay results reported in patent publication US11419856B2, “Pharmaceutical combinations for use in the treatment of neoplastic diseases” (Basilea Pharmaceutica International AG, priority 2017, dated 2022).
Read-outs that look alike come from different tables or passages of the source.

Columns and labels:
Jurkat-GFP cells = experiment: Apoptosis assay (EGFP/FACS) in Jurkat-GFP cells; format: cell-based, human; conditions: data not shown; for EC50: Homo sapiens, read-out: EC50, induction of apoptosis; for maximal apoptosis induction: maximum of dose-response curve
Experimental: (§1) The following human cell line was used: MDA-MB-231 (ATCC: HTB-26). In addition the following enhanced green fluorescent protein (EGFP)-transfected human cell lines were used: NCI-H460 (ATCC: HTB-177) (H460GFP) and Jurkat (ATCC: TIB-152) (JurkatGFP). NCI-H460 and Jurkat cell lines were cultured in RPMI-1640 tissue culture medium containing 10% (v/v) fetal calf serum, 2 mM glutamine, non-essential amino acids and 50 μg/ml penicillin/streptomycin (Complete medium) (Sigma, Buchs, Switzerland). The MDA-MB-231 cell line was cultured in Dulbecco's Modified Eagle Medium (DMEM) (high glucose) tissue culture medium containing 10% (v/v) fetal calf serum, 1 mM sodium pyruvate and 50 μg/ml penicillin/streptomycin (i.e. Complete Medium) (Sigma, Buchs, Switzerland).
General growth conditions were 37° C. and 7.5% CO2. For the microtubule destabilization assay cell lines were cultured in 5% CO2.
The assays were performed in commercially available sterile 96-well U-bottom or 24-well flat-bottom tissue culture plates (Falcon). A defined number of test cells expressing enhanced green fluorescent protein (EGFP) (H460 cells: 600 μl of 30′000 cells/ml in 24-well flat-bottom plates, Jurkat cells: 600 μl of 400′000 cells/ml in […]) were plated either 24 hours before treatment in case of the adherent H460 cell line, or one hour prior to the start of the treatment for Jurkat cells. Between seeding and addition of compounds, the cells were incubated at 37° C. under 7.5% CO2. Subsequently, BAL27862 and eribulin (Halaven®, Ch.-B. 60363CRN1, Eisai) which were dissolved in Complete Medium were both added from stock solutions at 5× the final concentration in 200 μl to the wells, resulting in a final well-volume of 1 ml. The test plates were then incubated for the indicated time. For time course experiments with Jurkat cells, the 96-well plates were removed shortly at the indicated time from the incubator, shaken in order to suspend the cells and an aliquot of 200 μl cell suspension was then transferred to a 96-well U-bottom plate and measured immediately on a fluorescence-activated cell sorting (FACS)-Canto II with a high through-put sampler (HTS)-module. […]
The quantification of the relative amount of apoptotic cells within a cell population was determined according to the Reference of Strebel et al., Cytometry 2001, 43(2), Green Fluorescent Protein as Novel Tool to Measure Apoptosis and Necrosis). By monitoring the EGFP fluorescence activity excited at […] and measured at […] on a FACS-Cantoll™, it is possible to distinguish between proliferating cells, apoptotic cells and necrotic cells within the same cell population. […] As a readout the relative abundance of the cells belonging to M2 (apoptotic population) were expressed.

NCI-H460-GFP cells = experiment: Apoptosis assay (EGFP/FACS) in NCI-H460-GFP cells; format: cell-based; conditions: Homo sapiens, data not shown, read-out: EC50, induction of apoptosis
Experimental: as §1, with “The MDA-MB-231 cell line was cultured in Dulbecco's Modified Eagle Medium (DMEM) (high glucose) tissue culture medium containing 10% (v/v) fetal calf serum, 1 mM sodium pyruvate and 50 μg/ml penicillin/streptomycin (i.e. Complete Medium) (Sigma, Buchs, Switzerland).” left out
The assays were performed in commercially available sterile 96-well U-bottom or 24-well flat-bottom tissue culture plates (Falcon). […] For time course experiments with Jurkat cells, the 96-well plates were removed shortly at the indicated time from the incubator, shaken in order to suspend the cells and an aliquot of 200 μl cell suspension was then transferred to a 96-well U-bottom plate and measured immediately on a fluorescence-activated cell sorting (FACS)-Canto II with a high through-put sampler (HTS)-module. […]
The quantification of the relative amount of apoptotic cells within a cell population was determined according to the Reference of Strebel et al., Cytometry 2001, 43(2), Green Fluorescent Protein as Novel Tool to Measure Apoptosis and Necrosis). […] As a readout the relative abundance of the cells belonging to M2 (apoptotic population) were expressed.

MDA-MB-231 cells = experiment: Soft agar clonogenic (colony outgrowth) assay, anti-proliferative IC50; format: cell-based; conditions: Homo sapiens
Experimental: Cells were plated in soft agar in 24-well plates according to the assay introduced by Hamburger & Salmon (Primary bioassay of human tumor stem cells, Science, 1977, 197:461-463). Each test well contained three layers of equal volume: 2 layers of semi-solid medium (bottom and top layer), and one layer of medium supernatant, with or without test compound (drug overlay on top of the semi-solid medium layer).
The bottom agar layer consisted of 0.2 mL/well IMDM supplemented with 20% (v/v) fetal calf serum, penicillin/streptomycin 50 μg/mL and 0.75% (w/v) bacto agar (BD Biosciences, #214050). For the top agar layer, 10′000-20′000 cells were added to 0.2 mL of the same IMDM medium supplemented with 0.35% (w/v) bacto agar and plated onto the bottom layer. For the drug overlay, the test compounds were applied by continuous exposure in 0.2 mL IMDM medium on top of the two agar layers. The drug overlay was added directly after seeding the cells as 3-fold concentrated solution and changed carefully every 3-4 days. Every 24-well plate contained untreated controls and samples in duplicates. Cultures were incubated at 37° C. and 5% CO2 for 6-14 days. 24 hours prior to evaluation, vital colonies were stained with a sterile aqueous solution of 2-(4-iodophenyl)-3-(4-nitrophenyl)-5-phenyltetrazolium chloride (Sigma, #I-8377, 1 mg/mL, 100 μL/well) (Alley M C et al., Life Sci. 1982, 31:3071-3078) and were counted with an automatic image analysis system (GelCount, Oxford Optronix). IC50-values were determined by plotting compound concentrations versus relative colony counts. Relative drug effects were expressed by the maximum effect of the mean number of colonies in the treated wells in comparison to the control wells.

[1] = Pharmacokinetic profile in mouse plasma (LC-MS/MS), single agents vs combination; format: in vivo; conditions: non-tumor bearing mice; BAL101553 daily, eribulin every two days to steady state; 10 minutes to 24 hours; FIG. 6
Experimental: Female NCI Ath/nu non-tumor bearing mice were treated either with BAL101553, eribulin or with a combination of BAL101553 and eribulin where eribulin was administered 30 minutes before BAL101553. Control animals received vehicle control. The mice were dosed until steady state was reached (BAL101553 was dosed daily and eribulin was dosed once every two days, the doses used for the combination-treatment matched those used in the monotherapy). Blood was taken from every animal according to a determined schedule covering a time window of 10 minutes to 24 hours, processed for plasma and subsequently analyzed by LC-MS/MS for the determination of BAL27862 (parent drug of BAL101553) and eribulin concentrations (ng/ml plasma). Data points represent mean values of ng/ml plasma concentration+/−SEM (n=3 animals).
The in vivo combination of BAL101553 with eribulin in the TNBC xenograft model MDA-MB-231 led to a higher proportion of cures or tumor free animals than observed in the single agent treatment groups. […] The mice were either treated with BAL101553, eribulin or the combination thereof, and plasma concentrations of BAL27862 and eribulin at various time points were determined (FIG. 6).

[2] = read-out: IC50 values in soft agar assay
[3] = soft agar clonogenic assay, data not shown, read-out: anti-proliferative IC50

Row | SMILES | EC50 (Jurkat-GFP cells) [nM] | maximal apoptosis induction (Jurkat-GFP cells) | EC50 (NCI-H460-GFP cells) [nM] | IC50 (MDA-MB-231 cells; [2]) [nM] | IC50 (MDA-MB-231 cells; [3]) [nM] | plasma concentrations, single agent vs combination [1]
1 | C=C1C[C@@H]2CC[C@@]34C[C@H]5O[C@H]6[C@@H](O3)[C@H]3O[C@H](CC[C@@H]3O[C@H]6[C@H]5O4)CC(=O)C[C@@H]3[C@@H](OC)[C@@H](C[C@H](O)CN)O[C@H]3C[C@H]3O[C@@H](CC[C@@H]1O2)C[C@@H](C)C3=C.CS(=O)(=O)O [Eribulin, (2R, 3R, 3aS, 7R, 8aS, 9S, 10aR, 11S, 12R, 13aR, 13bS, 15S, 18S, 21S, 24S, 26R, 28R, 29aS)-2-[(2S)-3-Amino-2-hydroxypropyl]-3-methoxy-26-methyl-20,27-dimethylidenehexacosahydro-11,15:18,21:24,28-triepoxy-7,9-ethano-12,15-methano-9H,15H-furo[3,2-i]furo[2′,3′:5,6]pyrano[4,3-b][1,4]dioxacyclopentacosin-5(4H)-one methanesulfonate (salt)] | 0.8 | about 70% | 1 | 0.111 | 0.1 | did not change significantly
2 | N#CCCNc1nonc1-c1nc2ccccc2n1CC(=O)c1ccc(N)cc1 [BAL27862, 3-(4-{1-[2-(4-Amino-phenyl)-2-oxo-ethyl]-1H-benzoimidazol-2-yl}-furazan-3-ylamino)-propionitrile] | 15 | 70-80% | 24 | 12 | 12 | did not change significantly
